Source: patent US12594293B2, “Use of 6-thio-dG to treat therapy-resistant telomerasepositive pediatric brain tumors” (The Board of Regents of The University of Texas System, priority 2018, dated 2026)

Key:
HFF+hTERT cells = assay: Immunofluorescence and telomere FISH (TIF) assay; type: cell-based, human; conditions: for effect on 6-thio-dG-induced TIFs: 10 μM of ATM or 50 nM ATR specific inhibitor 2 hours prior to and with 3 μM 6-thio-dG for 48 hours
Description: Immunofluorescence and telomere FISH assay. Cells were fixed with 4% paraformaldehyde (PFA) for 15 minutes. Cells were then washed, permeabilized with 0.5% Triton-X-100 in PBS, blocked with 5% donkey serum and 0.3% Triton X-100 in TBS and incubated with primary antibodies against γH2A.X (1:500, rabbit), or cleaved caspase-3 (1:400, rabbit) (Cell Signaling); and/or TRF2 (1:200) (Mouse; NOVUS), as applicable, for overnight followed by TBST wash (×3) next day. Corresponding secondary antibodies were added (Alexa-Fluor 488- or 594-conjugated donkey anti-rabbit, or anti-mouse (1:500) (Jackson ImmunoResearch) for 1 hour and washed with TBS (×3) before mounting. For telomere-FISH, fixed and permeabilized cells were dehydrated with a graded ethanol concentration series, air-dried and covered with hybridization solution (70% formamide, 0.5% Blocking Reagent (Roche Diagnostics) diluted in 100 mM maleic acid and 150 mM sodium chloride, and 10 mM Tris (pH 7.5)) with 300 ng/mL PNA(CCCTAA)3-Cy3 (SEQ ID NO: 1) (Biosynthesis, USA), and denatured for 6 minutes at 84° C. followed by hybridization for at least two hours at room temperature. Cells were washed three times with 70% formamide and 10 mM Tris (pH 7.5) and three times with TBS. Finally, they were embedded with mounting media with DAPI (Vector Laboratories H1200).

telomerase = assay: Telomerase activity assay (TRAP) in treated HFF+hTERT cells; type: cell-based, human; conditions: IMT 2 μM
Description: Telomerase activity assay. Telomerase activity was assayed using the TRAPeze Telomerase Detection Kit (Millipore). Cell extracts were prepared according to the manufacturer's protocol. 50-100 ng of total protein was used to assess the telomerase activity by performing polyacrylamide gel (12.5%) electrophoresis.

[1] = test system: CD138-positive and CD138-negative cancer stem cells; conditions: by five weeks; cited from earlier work
HFF + hTERT = assay: Cell growth assay (viable cell count, trypan blue exclusion); type: cell-based, human; conditions: pre-treated with IMT 2 μM 3 days, then 6-thio-dG 3 μM 3 days
[2] = children with recurrent CNS malignancies; thrombocytopenia that led to bleeding; cited from earlier work
[3] = test system: CD138-negative Multiple Myeloma Cancer Stem Cells; conditions: cells from bone marrow aspirates of patients with multiple myeloma; cited from earlier work

Row | Molecule | effect on 6-thio-dG-induced TIFs (HFF+hTERT cells) | telomerase activity (TRAP assay) (telomerase) | colony forming potential [1] | inhibition of cell growth by 6-thio-dG in the combination treatment (HFF + hTERT) | effect on 6-thio-dG-induced TIF formation (HFF+hTERT cells; IMT 2 μM pre-treatment, then 6-thio-dG 3 μM 3 days) | genomic DNA damage (γH2AX foci) in cells treated with 6-thio-dG (HFF+hTERT cells; IMT 2 μM with 6-thio-dG 3 μM 3 days) | tolerability and efficacy of regimen [2] | in vitro clonogenic growth [3]
1 | O=c1cc(-c2cccc3c2Sc2ccccc2S3)oc(N2CCOCC2)c1 [ATM inhibitor, reference compound] | reduction in the number of cells with TIFs | – | – | – | – | – | – | –
2 | CNCc1ccc(-c2cc(-c3nc(-c4ccc(S(=O)(=O)C(C)C)cc4)cnc3N)on2)cc1 [ATR inhibitor, reference compound] | reduction in the number of cells with TIFs | – | – | – | – | – | – | –
3 | imetelstat | – | inhibition of telomerase activity | eliminated the colony forming potential | markedly reduced | inhibited 6-thio-dG-induced TIF formation | reduced the genomic DNA damage | intolerable and ineffective | inhibited the in vitro clonogenic growth
